No end group written: not given here. *: point of attachment. dipalmitoylglyceryl = dipalmitoylglyceryl (diacylglyceryl moiety on the cysteine); Palmitoyl = CCCCCCCCCCCCCCCC(=O)*
B1: Pam3CSK4, Cys(Pam3)-Ser-(Lys)4 (peptide)
peptide: Palmitoyl-C(dipalmitoylglyceryl)SKKKK
notes: Printed in three-letter code: Cys-Ser-Lys-Lys-Lys-Lys; triacylated bacterial lipoprotein peptide analog; Triacylated lipopeptide; also called TA-BLPtide product; BLPtide; source: synthetic peptide (commercial or in-house synthesized BLP peptide analog)

Assays:
[1] = biological target: T1, LntPae (Pseudomonas aeruginosa, UniProt Q9ZI86); experiment: TLC of FP2 to FP3 conversion; format: biochemical; settings: acyl donor, HA-treated enzyme; 500 uM GPL, 150 uM FP2, pH 7.5, 37 C, 90 min
T1 construct: gene lnt; full length, N-terminal thrombin-cleavable His6 tag, pET28a, expressed in E. coli C41(DE3); membrane protein in LMNG micelles or cubic mesophase
T1 sequence (Q9ZI86 1-511): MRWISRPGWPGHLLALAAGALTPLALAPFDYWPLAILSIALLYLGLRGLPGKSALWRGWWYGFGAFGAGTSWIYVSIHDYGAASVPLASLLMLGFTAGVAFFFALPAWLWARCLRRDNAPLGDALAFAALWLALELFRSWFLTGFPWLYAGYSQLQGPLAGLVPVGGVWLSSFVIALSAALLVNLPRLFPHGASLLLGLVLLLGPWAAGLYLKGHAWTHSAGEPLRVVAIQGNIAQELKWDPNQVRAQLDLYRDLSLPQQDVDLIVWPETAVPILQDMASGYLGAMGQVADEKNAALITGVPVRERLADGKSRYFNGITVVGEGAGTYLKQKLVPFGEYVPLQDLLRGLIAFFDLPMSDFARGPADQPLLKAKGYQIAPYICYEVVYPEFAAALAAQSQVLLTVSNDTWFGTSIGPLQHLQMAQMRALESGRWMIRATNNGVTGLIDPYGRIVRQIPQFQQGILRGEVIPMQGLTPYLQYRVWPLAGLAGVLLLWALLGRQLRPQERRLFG

[2] = biological target: T2, LntEco (Escherichia coli, UniProt P23930); experiment: TLC of FP2 to FP3 conversion; format: biochemical; settings: acyl donor, HA-treated enzyme; 500 uM GPL, 150 uM FP2, pH 7.5, 37 C, 90 min
T2 construct: gene lnt; full length, N-terminal thrombin-cleavable His6 tag, pET28a, expressed in E. coli C43(DE3); membrane protein in LMNG or DDM micelles; 57 kDa; HA-treated for GPL specificity assay

[3] = biological target: T2, LntEco; experiment: X-ray crystallography (in surfo); format: binding; settings: covalent; dithiocarbamate at catalytic Cys387; lyso-PE also bound; 2.66 A
[4] = biological target: T1, LntPae; experiment: X-ray crystallography (in meso); format: binding; settings: covalent; at catalytic Cys382; two monooleins in pocket; 2.6 A
[5] = biological target: T3, LntEco Cys387Ala (apolipoprotein N-acyltransferase from E. coli, inactive mutant) (E. coli, UniProt P23930 1-512, Cys387Ala); experiment: cryo-EM structure; Lnt mutant (16 mg/ml) incubated with Pam3CSK4 or FP2 (10 mg/ml in DMSO) for 1 hour at 21°C, then Superdex 200 10/300 Increase in 20 mM sodium citrate pH 6, 150 mM NaCl, 0.001% LMNG; protein in a detergent micelle; settings: both partners purified
T3 construct: Apolipoprotein N-acyltransferase Lnt, E. coli, 57-kDa membrane protein; gene synthesized and cloned into pET28a (Nde I/Xho I); residues counted in E. coli numbering; The His6 tag is thrombin-cleavable; no cleavage step is described; In a detergent micelle (LMNG); also called Lnt Cys387Ala; C387A; source: E. coli C43(DE3), purified (Ni-NTA, Superdex 200) in LMNG

| Molecule | TLC of FP2 to FP3 conversion [1] | TLC of FP2 to FP3 conversion [2] | X-ray crystallography (in surfo) [3] | X-ray crystallography (in meso) [4] | binding result [5] |
| --- | --- | --- | --- | --- | --- |
| CCCCCCCC/C=C\CCCCCCCC(=O)O[C@H](COC(=O)CCCCCCCCCCCCCCC)COP(=O)(O)OCC(O)CO (stereo partly shown) [POPG, palmitoyloleoylphosphatidylglycerol] | (POPE) were effective acyl donors for LntEco and LntPae | palmitoyloleoylphosphatidylglycerol (POPG) and palmitoyloleoylphosphatidylethanolamine (POPE) were effective acyl donors for LntEco |  |  |  |
| CCCCCCCCCCCCCCN=C=S [TITC, tetradecyl-1-isothiocyanate] |  |  | Crystals of the TITC-modified protein (Lnt-TITC), grown in the presence of E. coli GPLs | a structure of the TITC-modified LntPae was obtained with two monooleins in the binding pocket |  |
| CCCCCCCC/C=C\CCCCCCCC(=O)O[C@H](COC(=O)CCCCCCCCCCCCCCC)COP(=O)(O)OCCN [POPE, palmitoyloleoylphosphatidylethanolamine] | (POPE) were effective acyl donors for LntEco and LntPae | (POPE) were effective acyl donors for LntEco and LntPae |  |  |  |
| B1 |  |  |  |  | binds |
